EC50 data for 23 molecules are collected here from patent publication US11254663B2 (BRISTOL-MYERS SQUIBB COMPANY, priority 2019, dated 2022).

The assay deals with FXR (Homo sapiens (Human), UniProt Q96RI1). Kind of assay: transient human FXR/Gal4-luciferase reporter assay. It is filed as cell-based. A digest of the protocol:
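HEK293 cells stably carrying a 5×Gal4 response element–firefly luciferase reporter were transiently transfected overnight with a Gal4 DBD–human FXR LBD fusion plasmid. Compound was added in DMSO and cells were incubated overnight at 37 °C, 5% CO2. Activity was read as Steady-Glo luminescence.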

Where [1] appears, read: Gal4-hFXR fusion construct, HEK293 reporter cells, response relative to 8 μM GW-4064.

Read-outs that look alike come from different tables or passages of the source.

Sequence of FXR (Q96RI1 262-486): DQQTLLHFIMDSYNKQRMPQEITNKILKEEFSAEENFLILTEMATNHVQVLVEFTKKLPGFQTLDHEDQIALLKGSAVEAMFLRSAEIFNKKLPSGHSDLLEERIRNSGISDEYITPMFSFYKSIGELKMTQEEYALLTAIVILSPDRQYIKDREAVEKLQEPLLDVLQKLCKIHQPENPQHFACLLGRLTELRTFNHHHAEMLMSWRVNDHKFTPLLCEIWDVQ

Regarding `CC1(c2nc(C34CCC(CN(C(=O)C56CC(F)(C5)C6)c5cccc(-c6ccc(NS(C)(=O)=O)cc6)c5)(CC3)CC4)no2)CC1` [Example 398, 3-fluoro-N-((4-(5-(1-methylcyclopropyl)-1,2,4-oxadiazol-3-yl)bicyclo[2.2.2]octan-1-yl)methyl)-N-(4′-(methylsulfonamido)-[1,1′-biphenyl]-3-yl)bicyclo[1.1.1]pentane-1-carboxamide], the EC50 under setting [1] was determined as 93 nM. Same read-out and setting: then `COc1cc(-c2cccc(N(CC34CCC(c5nnc(C)s5)(CC3)CC4)C(=O)C3CCCC3)c2)ccn1` [Example 233, N-(3-(2-methoxypyridin-4-yl)phenyl)-N-((4-(5-methyl-1,3,4-thiadiazol-2-yl)bicyclo[2.2.2]octan-1-yl)methyl)cyclopentanecarboxamide], with 1100 nM; and `CCc1cnc(-c2cccc(N(CC34CCC(c5nc(C(C)C)no5)(CC3)CC4)C(=O)C34CC(F)(C3)C4)c2)nc1` [Example 394, N-(3-(5-ethylpyrimidin-2-yl)phenyl)-3-fluoro-N-((4-(3-isopropyl-1,2,4-oxadiazol-5-yl)bicyclo[2.2.2]octan-1-yl)methyl)bicyclo[1.1.1]pentane-1-carboxamide], with 77 nM. The same measure, in the same setting: the same measure for `CC(C)(F)c1nc(C23CCC(CN(c4cccc(-c5ccc(-c6nonc6N)cc5)c4)C(=O)[C@H]4C[C@](O)(C(F)(F)F)C4)(CC2)CC3)no1` [Example 662, (cis)-N-(4′-(4-amino-1,2,5-oxadiazol-3-yl)-[1,1′-biphenyl]-3-yl)-N-((4-(5-(2-fluoropropan-2-yl)-1,2,4-oxadiazol-3-yl)bicyclo[2.2.2]octan-1-yl)methyl)-3-hydroxy-3-(trifluoromethyl)cyclobutane-1-carboxamide]: 574 nM; for `CCc1cnc(-c2cccc(N(CC34CCC(c5noc(C(C)(C)C)n5)(CC3)CC4)C(=O)C34CC(F)(C3)C4)c2)nc1` [Example 453, N-((4-(5-(tert-butyl)-1,2,4-oxadiazol-3-yl)bicyclo[2.2.2]octan-1-yl)methyl)-N-(3-(5-ethylpyrimidin-2-yl)phenyl)-3-fluorobicyclo[1.1.1]pentane-1-carboxamide]: 34 nM; for `Cc1nc2ccc(-c3cccc(N(CC45CCC(c6noc(C(C)C)n6)(CC4)CC5)C(=O)C45CC(F)(C4)C5)c3)cc2s1` [Example 433, 3-fluoro-N-((4-(5-isopropyl-1,2,4-oxadiazol-3-yl)bicyclo[2.2.2]octan-1-yl)methyl)-N-(3-(2-methylbenzo[d]thiazol-6-yl)phenyl)bicyclo[1.1.1]pentane-1-carboxamide]: 37 nM.

Under setting [1], `O=C(N(CC12CCC(c3nc(C4CC4)no3)(CC1)CC2)c1cccc(-c2ccc(Cl)c(Cl)c2)c1)C12CC(F)(C1)C2` [Example 286, N-((4-(3-cyclopropyl-1,2,4-oxadiazol-5-yl)bicyclo[2.2.2]octan-1-yl)methyl)-N-(3′,4′-dichloro-[1,1′-biphenyl]-3-yl)-3-fluorobicyclo[1.1.1]pentane-1-carboxamide] came in with a concentration giving a half-maximal response (EC50) of 361 nM. Same read-out and setting: the same measure for `CCOc1ncc(-c2cccc(N(CC34CCC(c5nc(C(C)C)no5)(CC3)CC4)C(=O)C34CC(F)(C3)C4)c2)cn1` [Example 374, N-(3-(2-ethoxypyrimidin-5-yl)phenyl)-3-fluoro-N-((4-(3-isopropyl-1,2,4-oxadiazol-5-yl)bicyclo[2.2.2]octan-1-yl)methyl)bicyclo[1.1.1]pentane-1-carboxamide]: 44 nM; for `CC(C)c1noc(C23CCC(CN(C(=O)C45CC(F)(C4)C5)c4cccc(-c5ccc(C(F)(F)F)cc5)c4)(CC2)CC3)n1` [Example 380, 3-fluoro-N-((4-(3-isopropyl-1,2,4-oxadiazol-5-yl)bicyclo[2.2.2]octan-1-yl)methyl)-N-(4′-(trifluoromethyl)-[1,1′-biphenyl]-3-yl)bicyclo[1.1.1]pentane-1-carboxamide]: 283 nM. Same read-out and setting: then `CC(C)Oc1ccc(-c2cccc(N(CC34CCC(c5cc(C(C)(F)F)on5)(CC3)CC4)C(=O)OC(C)(C)C(F)(F)F)c2)cc1` [Example 656, 1,1,1-trifluoro-2-methylpropan-2-yl ((4-(5-(1,1-difluoroethyl)isoxazol-3-yl)bicyclo[2.2.2]octan-1-yl)methyl)(4′-isopropoxy-[1,1′-biphenyl]-3-yl)carbamate], with 1060 nM; and `CC(C)(C)c1noc(C23CCC(CN(C(=O)C45CC(F)(C4)C5)c4cccc(-c5ccc(NS(C)(=O)=O)nc5)c4)(CC2)CC3)n1` [Example 364, N-((4-(3-(tert-butyl)-1,2,4-oxadiazol-5-yl)bicyclo[2.2.2]octan-1-yl)methyl)-3-fluoro-N-(3-(6-(methylsulfonamido)pyridin-3-yl)phenyl)bicyclo[1.1.1]pentane-1-carboxamide], with 509 nM. For the molecule `CC(C)(C)c1nc(C23CCC(CN(C(=O)C45CC(F)(C4)C5)c4cc(-c5cnc6nc(C7CC7)sc6c5)ccn4)(CC2)CC3)no1` [Example 535, N-((4-(5-(tert-butyl)-1,2,4-oxadiazol-3-yl)bicyclo[2.2.2]octan-1-yl)methyl)-N-(4-(2-cyclopropylthiazolo[4,5-b]pyridin-6-yl)pyridin-2-yl)-3-fluorobicyclo[1.1.1]pentane-1-carboxamide], the EC50 was found to be 202 nM. `O=C(N(CC12CCC(c3noc(C(F)F)n3)(CC1)CC2)c1cccc(-c2cnc(C(F)(F)F)nc2)c1)C12CC(F)(C1)C2` [Example 464, N-((4-(5-(difluoromethyl)-1,2,4-oxadiazol-3-yl)bicyclo[2.2.2]octan-1-yl)methyl)-3-fluoro-N-(3-(2-(trifluoromethyl)pyrimidin-5-yl)phenyl)bicyclo[1.1.1]pentane-1-carboxamide] returned an EC50 of 654 nM. Turning to `CC(C)(C#N)Oc1ccc(-c2cccc(N(CC34CCC(c5noc(C6(F)CC6)n5)(CC3)CC4)C(=O)C3CC(O)(C(F)(F)F)C3)c2)cc1` (stereo not drawn) [Example 583, (cis)-N-(4′-((2-cyanopropan-2-yl)oxy)-[1,1′-biphenyl]-3-yl)-N-((4-(5-(1-fluorocyclopropyl)-1,2,4-oxadiazol-3-yl)bicyclo[2.2.2]octan-1-yl)methyl)-3-hydroxy-3-(trifluoromethyl)cyclobutane-1-carboxamide], under setting [1], the response was half-maximal at 49 nM (EC50). As to `CCOc1ncc(-c2cccc(N(CC34CCC(c5noc(C6(C(F)(F)F)CC6)n5)(CC3)CC4)C(=O)C34CC(F)(C3)C4)c2)cn1` [Example 525, N-(3-(2-ethoxypyrimidin-5-yl)phenyl)-3-fluoro-N-((4-(5-(1-(trifluoromethyl)cyclopropyl)-1,2,4-oxadiazol-3-yl)bicyclo[2.2.2]octan-1-yl)methyl)bicyclo[1.1.1]pentane-1-carboxamide], the EC50 was determined as 142 nM. With `COc1cnc(-c2cccc(N(CC34CCC(c5ccc(C(F)(F)F)cn5)(CC3)CC4)C(=O)C34CC(F)(C3)C4)c2)nc1` [Example 500, 3-fluoro-N-(3-(5-methoxypyrimidin-2-yl)phenyl)-N-((4-(5-(trifluoromethyl)pyridin-2-yl)bicyclo[2.2.2]octan-1-yl)methyl)bicyclo[1.1.1]pentane-1-carboxamide], the concentration giving a half-maximal response (EC50) amounted to 810 nM.

For `CCOc1ncc(-c2cccc(N(CC34CCC(c5nc(C6CC6)no5)(CC3)CC4)C(=O)C34CC(F)(C3)C4)c2)cn1` [Example 289, N-((4-(3-cyclopropyl-1,2,4-oxadiazol-5-yl)bicyclo[2.2.2]octan-1-yl)methyl)-N-(3-(2-ethoxypyrimidin-5-yl)phenyl)-3-fluorobicyclo[1.1.1]pentane-1-carboxamide], under setting [1], the EC50 worked out at 48 nM. On the same count and under the same terms, then `Cc1nc2ccc(-c3cccc(N(CC45CCC(c6cc(C(F)(F)F)ccn6)(CC4)CC5)C(=O)C45CC(F)(C4)C5)c3)cc2s1` [Example 356, 3-fluoro-N-(3-(2-methylbenzo[d]thiazol-6-yl)phenyl)-N-((4-(4-(trifluoromethyl)pyridin-2-yl)bicyclo[2.2.2]octan-1-yl)methyl)bicyclo[1.1.1]pentane-1-carboxamide], with 800 nM; and `CS(=O)(=O)Nc1ccc(-c2cccc(N(CC34CCC(c5ccc(C6(C#N)CC6)cc5)(CC3)OC4)C(=O)C34CC(F)(C3)C4)c2)cc1` [Example 345, N-((1-(4-(1-Cyanocyclopropyl)phenyl)-2-oxabicyclo[2.2.2]octan-4-yl)methyl)-3-fluoro-N-(4′-(methylsulfonamido)-[1,1′-biphenyl]-3-yl)bicyclo[1.1.1]pentane-1-carboxamide], with 264 nM. Same read-out and setting: then `Cc1nc2ncc(-c3cccc(N(CC45CCC(c6nc(C(C)(C)C)no6)(CC4)CC5)C(=O)C45CC(F)(C4)C5)c3)cc2s1` [Example 365, N-((4-(3-(tert-butyl)-1,2,4-oxadiazol-5-yl)bicyclo[2.2.2]octan-1-yl)methyl)-3-fluoro-N-(3-(2-methylthiazolo[4,5-b]pyridin-6-yl)phenyl)bicyclo[1.1.1]pentane-1-carboxamide], with 84 nM. The same measure, in the same setting: then `CC(C)(C)c1nc(C23CCC(CN(C(=O)C45CC(F)(C4)C5)c4cccc(-c5ccc6c(c5)OC(F)(F)O6)c4)(CC2)CC3)no1` [Example 457, N-((4-(5-(tert-butyl)-1,2,4-oxadiazol-3-yl)bicyclo[2.2.2]octan-1-yl)methyl)-N-(3-(2,2-difluorobenzo[d][1,3]dioxol-5-yl)phenyl)-3-fluorobicyclo[1.1.1]pentane-1-carboxamide], with 144 nM; and `CC(C)(C)c1nc(C23CCC(CN(C(=O)C45CC(F)(C4)C5)c4cccc(-c5ccc(OC(F)F)cc5)c4)(CC2)CC3)no1` [Example 444, N-((4-(5-(tert-butyl)-1,2,4-oxadiazol-3-yl)bicyclo[2.2.2]octan-1-yl)methyl)-N-(4′-(difluoromethoxy)-[1,1′-biphenyl]-3-yl)-3-fluorobicyclo[1.1.1]pentane-1-carboxamide], with 61 nM. For `O=C(N(CC12CCC(c3nc(C(F)F)no3)(CC1)CC2)c1cccc(-c2cnc(C(F)(F)F)nc2)c1)C12CC(F)(C1)C2` [Example 467, N-((4-(3-(difluoromethyl)-1,2,4-oxadiazol-5-yl)bicyclo[2.2.2]octan-1-yl)methyl)-3-fluoro-N-(3-(2-(trifluoromethyl)pyrimidin-5-yl)phenyl)bicyclo[1.1.1]pentane-1-carboxamide], the half-maximal effective concentration (EC50) amounted to 2110 nM.
